PMC8878047 (Pharmaceutics, 2022)
Values after ≈ are worked out from the molar mass of the structure shown.

Assays:
[1] = Water solubility by UV-Vis (Lambert–Beer law); type: physicochemical; conditions: thermodynamic from solid, saturated aqueous solution, 30× dilution, room temperature / 35 °C (method)
Source text: We diluted this solution into a series of working solutions to measure their UV-Vis spectra.

Proteus vulgaris = assay: In vitro antibacterial activity (MIC/MBC, doubling dilution); type: cell-based; conditions: P. vulgaris, 37 °C, 24 h
Description: (§1) The clinically typical pathogens (Staphylococcus aureus, Escherichia coli, Pseudomonas aeruginosa, Salmonellosis typhoidal and Proteus vulgaris) were obtained from the Department of Microbiology and Immunology of Guangxi Medical University. We cultured the bacterial suspension of five pathogens in bouillon culture-medium at 37 °C, and diluted it into 0.5 McFarland Standard with bioclean normal saline (the volume ratio of each bacterial suspension and bioclean normal saline was 1:1000, and the concentration of bacterial suspension was 1~2 × 10^8 CFU/mL). […] We carried out the assays for MIC and MBC evaluation by doubling the dilution under sterile operation on the clean bench. To be specific, we set the sterile test tubes numbered 1–10 for comparison according to the half-dilution method. We added the broth medium to each test tube to fix the final volume to be 2 mL. […] Then, we filled each tube with 50 μL of inoculated bacteria colony, except for tube no. 9, which was the negative control. The final colony concentration in each test tube was 2 × 10^5 CFU/mL. Tube no. 10 was set as a blank without the tested drug. […] We repeated all tests in triplicate.

Pseudomonas aeruginosa = assay: as above; type: cell-based; conditions: P. aeruginosa, 37 °C, 24 h
Description: as §1

Staphylococcus aureus = assay: as above; type: cell-based; conditions: S. aureus, 37 °C, 24 h
Description: as §1

[2] = rat, in vivo, po
KM mice = type: in vivo; conditions: high-dose group, dead mice, HE staining
Description: After the acute toxicity test, the dead mice after oral administration and the surviving mice at the end of the observation period were promptly dissected and pathologically examined. […] We dissected the important organs (heart, liver, spleen, lung, kidney, large intestine, and small intestine) of dead mice and normal mice in the high-dose group of each drug solution. Then, the main organs were fixed in 10% buffered formalin and embedded in paraffin for 1–4 h. They were histopathologically examined under the optical microscope after slicing and staining with hematoxylin-eosin (HE) staining. No fixed parameters were compared between the treatment and control groups.

| SMILES | solubility [1] [µg/mL] | MBC (Proteus vulgaris) [µg/mL] | MIC (Proteus vulgaris) [µg/mL] | MBC (Pseudomonas aeruginosa) [µg/mL] | MIC (Pseudomonas aeruginosa) [µg/mL] | MBC (Staphylococcus aureus) [µg/mL] | MIC (Staphylococcus aureus) [µg/mL] | Cl ([2]; male, SD) [mL/min/kg] | Vd ([2]; male, SD) [L/kg] | Tmax [2] [H] | histopathological finding in kidney tissue (KM mice) | histopathological finding in lung tissue (KM mice) |
| --- | --- | --- | --- | --- | --- | --- | --- | --- | --- | --- | --- | --- |
| CCN1CCN(c2cc3c(cc2F)c(=O)c(C(=O)O)cn3C2CC2)CC1 [EFX, enrofloxacin, reference compound] | 204 (≈ 568 µM) | 0.125 (≈ 0.348 µM) | 0.125 (≈ 0.348 µM) | 0.125 (≈ 0.348 µM) | 0.125 (≈ 0.348 µM) | 0.25 (≈ 0.696 µM) | 0.25 (≈ 0.696 µM) | 0.6167 | 1.05316 | 1 | – | – |
| CCN1CCN(c2cc3c(cc2F)c(=O)c(C(=O)[O-])cn3C2CC2)CC1.CCN1CCN(c2cc3c(cc2F)c(=O)c(C(=O)[O-])cn3C2CC2)CC1.O.O.O.O.[Ca+2] [EFX-Ca, [Ca(EFX)2(H2O)4]·H2O] | – | – | – | – | – | – | – | – | – | – | enlargement of the renal capsule | significant inflammatory cell infiltration of the lung tissue |
